Measured values: patent US5220042A, “1,4-benzoquinone derivatives and benzene derivatives, and process for preparing the same” (priority 1984, dated 1993)
Read-outs that look alike come from different tables or passages of the source.

Tested on: SRS-A release from lung fragments
Assay: Inhibition of SRS-A release from sensitized guinea pig lung fragments
Format: cell-based, guinea pig (Hartley strain)
Details: Cavia porcellus
Experimental: Inhibitory activities on the release of SRS-A and histamine of the present compounds were determined.
A male guinea pig (Hartley strain) (body weight: about 300 g) was sensitized by a method according to P. Anderson: "Int. Archs. Allergey appln. Immunol., Vol. 64, pages 249-258 (1981). Thus, 30 mg/kg of cyclophosphamide was intraperitoneally administered to the guinea pig, and 2 days after 1 microgram of ovalbumin (manufactured by Sigma Chemical Co., St. Louis, Mo. U. S. A.) together with 10 mg of aluminium hydroxide gel were intraperitoneally administered so as to have the animal sesitized.
50 Days after the sesitization, the animal was killed by exsanguination, and the lung was isolated from the animal and was perfused with 20 ml of Tyrode's solution, then immersed in an ice-cooled Tyrode's solution. The parenchyma of the lung was cut by using McIlwain-type tissue chopper to make it into fragments of lung having 2 mm square and the fragments were washed with Tyrode's solution. 400 Milligrams of sectiles of lung were suspended in 3.6 ml of Tyrode's solution, and this suspension was preincubated at 37° C. for 5 minutes, then 4 microliters of dimethyl sulfoxide solution of the test compound, in the case of control 4 microliters of dimethyl sulfoxide alone was added to the suspension. 5 Minutes after, 0.4 ml of 100 micrograms/ml of ovalbumin solution added so as to release SRS-A for 10 minutes. The suspension was ice-cooled and filtered through gauze, the filtrate was centrifuged at 2,000 rpm for 10 minutes and the supernatant was collected. The supernatant was stored in freezed state at -80° C. until bio-assay was conducted.
Amounts of SRS-A and histamine contained in the supernatant were determined by bio-assay using ileum of guinea pig.
A piece of the ileum (2-3 cm of length) positioned from 15-25 cm from the opening portion of ileocecum was isolated from a male guinea pig (Hartley strain) (body weight: 400-600 g) which was fasted for 24 hours. The piece of ileum was hanged vertically in a Magnus tube which was filled with 10 ml of Tyrode's solution containing 10^-7 M of atropine sulfate under air stream conditions. The isotonic contraction of the piece of the ileum was measured at 0.5 g of load by using an isotonic transducer "TD-112S" (manufactured by Nihon Koden Co., Ltd.). The measurements were carried out after the reaction to histamine of the piece of ileum was kept constant. Bioassay of histamine was measured by using the value of contraction shown in 30 seconds after the addition of the supernatant. Bioassay of on SRS-A was measured by using the value of contraction shown at 2 minutes after the addition of the supernatant in the presence of 10^-6 M of pyrilamine (manufactured by Sigma Chemical Co.), and compared with the standard curve of crude SRS-A released from the fragments of the lung.

[1] = Table 2B, read-out: Inhibitory activities on SRS-A (%)
[2] = Table 2, dose 3 μM, read-out: Inhibition ratio (%) SRS-A
[3] = Table 2, dose 30 μM, read-out: Inhibition ratio (%) SRS-A
[4] = Table 2B, 3 μM, read-out: Inhibitory activities on SRS-A (%)
[5] = Table 2B, 30 μM, read-out: Inhibitory activities on SRS-A (%)

Row | Compound | inhibition at 1 µM [1] | inhibition at 10 µM [1] | inhibition at 3 µM [2] | inhibition at 30 µM [3] | inhibition at 3 µM [4] | inhibition at 30 µM [5]
1 | COC1=CC(=O)C(OC)=C(CCCSSCCCC2=C(OC)C(=O)C=C(OC)C2=O)C1=O [Test Compound No. 28, Bis[(3,6-dimethoxy-1,4-benzoquinon-2-yl)propyl] disulfide] | 30.5% | 85.2% |  |  |  | 
2 | COC1=CC(=O)C(OC)=C(CCCCCCCCCC#CCCCCCCCCCC2=C(OC)C(=O)C=C(OC)C2=O)C1=O [Test Compound No. 21, 2,2'-(10-Eicosynylene)bis(3,6-dimethoxy-1,4-benzoquinone)] |  |  | -21.7% | 16.6% | -21.7% | 16.6%
3 | COC1=C(CCCCCC2=C(OC)C(=O)C(OC)=C(OC)C2=O)C(=O)C(OC)=C(OC)C1=O [Test Compound No. 54, 2,2'-Pentamethylenebis(3,5,6-trimethoxy-1,4-benzoquinone)] | 32% | 88.7% |  |  |  | 
4 | COC1=CC(=O)C(OC)=C(CCC2=C(OC)C(=O)C=C(OC)C2=O)C1=O [Test Compound No. 23, 2,2'-Ethylenebis(3,6-dimethoxy-1,4-benzoquinone)] |  |  |  |  |  | 28.6%
5 | COC1=CC(=O)C(OC)=C(CC2=C(OC)C(=O)C=C(OC)C2=O)C1=O [compound 22] | 37.6% | 85.4% |  |  |  | 
6 | CCOC(=O)C1=C(OC)C(=O)C(CCCCCC2=C(OC)C(=O)C(C(=O)OCC)=C(OC)C2=O)=C(OC)C1=O [Test Compound No. 46, 2,2'-Pentamethylenebis(3,6-dimethoxy-5-ethoxycarbonyl-1,4-benzoquinone)] | 18.2% | 16.2% |  |  |  | 
7 | COC1=CC(=O)C(OC)=C(OCCCOC2=C(OC)C(=O)C=C(OC)C2=O)C1=O [Test Compound No. 42, 2,2'-Trimethylenedioxybis(3,6-dimethoxy-1,4-benzoquinone)] | 28.4% | 80% |  |  |  | 
8 | NC1=CC(=O)C(N)=C(CCCCCC2=C(N)C(=O)C=C(N)C2=O)C1=O [Test Compound No. 52, 2,2'-Pentamethylenebis(3,6-diamino-1,4-benzoquinone)] | 10% | 16.2% |  |  |  | 
9 | COC1=CC(=O)C(OC)=C(CCCCCCCC#CCCCCCCCC2=C(OC)C(=O)C=C(OC)C2=O)C1=O [Test Compound No. 20, 2,2'-(8-Hexadecynylene)bis(3,6-dimethoxy-1,4-benzoquinone)] |  |  | 14.5% | 24.1% | 14.5% | 24.1%
10 | CCCCC#CCCCC1=C(OC)C(=O)C(CCCCCC2=C(OC)C(=O)C=C(OC)C2=O)=C(OC)C1=O [Test Compound No. 39, 2,5 Dimethoxy-3-(4-nonynyl)-6-[5-(2,5-dimethoxy-1,4-benzoquinon-3-yl)pentyl]-1,4-benzoquinone] | 0% | 11% |  |  |  | 
11 | COC1=C(CCCCCC2=C(OC)C(=O)C(SC)=C(OC)C2=O)C(=O)C(OC)=C(SC)C1=O [Test Compound No. 45, 2,2'-Pentamethylenebis(3,6-dimethoxy-5-methylthio-1,4-benzoquinone)] | 28.1% | 50.7% |  |  |  | 
12 | COC1=C(CCO)C(=O)C(OC)=C(CCCCCC2=C(OC)C(=O)C(SC)=C(OC)C2=O)C1=O [Test Compound No. 49, 1-(2,5-Dimethoxy-3-methylthio-1,4-benzoquinon-6-yl)-5-[2,5-dimethoxy-3-(2-hydroxyethyl)-1,4-benzoquinon-6-yl]pentane] | -0.4% | 65.2% |  |  |  | 
13 | COC1=CC(=O)C(OC)=C(CCCCCC2=C(OC)C(=O)C(SC)=C(OC)C2=O)C1=O [Test Compound No. 43, 1-(2,5-Dimethoxy-1,4-benzoquinon-3-yl)-5-(2,5-dimethoxy-3-methylthio-1,4-benzoquinon-6-yl)pentane] | 23.2% | 79.4% |  |  |  | 
14 | CCOC(=O)C1=C(OC)C(=O)C(CCCCCC2=C(OC)C(=O)C=C(OC)C2=O)=C(OC)C1=O [Test Compound No. 44, 1-(2,5-Dimethoxy-1,4-benzoquinon-3-yl)-5-(2,5-dimethoxy-3-ethoxycarbonyl-1,4-benzoquinon-6-yl)pentane] | -10.5% | 18.6% |  |  |  | 
15 | CCCCC1=C(OC)C(=O)C(CCCCCC2=C(OC)C(=O)C(CCO)=C(OC)C2=O)=C(OC)C1=O [Test Compound No. 47, 1-(2,5-Dimethoxy-3-butyl-1,4-benzoquinon-6-yl)-[2,5-dimethoxy-3-(2-hydroxyethyl)-1,4-benzoquinon-6-yl]pentane] | 15.8% | 47.6% |  |  |  | 
16 | COC1=CC(=O)C(O)=C(CCCCCC2=C(O)C(=O)C=C(OC)C2=O)C1=O [Test Compound No. 51, 2,2'-Pentamethylenebis(3-hydroxy-6-methoxy-1,4-benzoquinone)] | 11.8% | 60.8% |  |  |  | 
17 | COC1=CC(=O)C(OC)=C(CCCCCC2=C(OC)C(=O)C(CCCCCC3=C(OC)C(=O)C=C(OC)C3=O)=C(OC)C2=O)C1=O [Test Compound No. 41, 2,5-Dimethoxy-3,6-bis[5-(2,5-dimethoxy-1,4-benzoquinon-3-yl)-entyl]-1,4-benzoquinone] | 4.1% | 25% |  |  |  | 
18 | COC1=CC(=O)C(OC)=C(CCCCCSCCCCCC2=C(OC)C(=O)C=C(OC)C2=O)C1=O [Test Compound No. 29, Bis[(3,6-dimethoxy-1,4-benzoquinon-2-yl)-pentyl]sulfide] | 19.6% | 60.5% |  |  |  | 
19 | COC1=CC(=O)C(OC)=C(CCCCCC2=C(OC)C(=O)C(OC)=C(OC)C2=O)C1=O [Test Compound No. 53, 2,3,5-Trimethoxy-6-[5-(2,5-dimethoxy-1,4-benzoquinon-3-yl)pentyl]-1,4-benzoquinone] | 50.8% | 94.9% |  |  |  | 
20 | COC1=CC(=O)C(OC)=C(CCCCC2=C(OC)C(=O)C=C(OC)C2=O)C1=O [Test Compound No. 24, 2,2'-Tetramethylenebis(3,6-dimethoxy-1,4-benzoquinone)] | 36.1% | 67.7% |  |  |  | 
21 | COC1=CC(=O)C(OC)=C(CCCOCCC2=C(OC)C(=O)C=C(OC)C2=O)C1=O [Test Compound No. 25, 2-(3,6-Dimethoxy-1,4-benzoquinon-2-yl)ethyl 3-(3,6-dimethoxy-1,4-benzoquinon-2-yl)propyl ether] | 52.4% | 94.4% |  |  |  | 
22 | COC1=CC(=O)C(OC)=C(CCCCCC2=C(OC)C(=O)C(CCO)=C(OC)C2=O)C1=O [Test Compound No. 40, 2,5-Dimethoxy-3-(2-hydroxyethyl)-6-[5-(2,5-dimethoxy-1,4-benzoquinon-3-yl)pentyl]-1,4-benzoquinone] | 38.2% | 91.7% |  |  |  | 
23 | COC1=CC(=O)C(OC)=C(COCC2=C(OC)C(=O)C=C(OC)C2=O)C1=O [Test Compound No. 26, Bis[(3,6-Dimethoxy-1,4-benzoquinon-2-yl)methyl] ether] |  |  |  |  | 10.9% | 39.8%
24 | COC1=C(CCO)C(=O)C(OC)=C(CCCCCC2=C(OC)C(=O)C(OC)=C(OC)C2=O)C1=O [Test Compound No. 48, 1-(2,3,5-Trimethoxy-1,4-benzoquinon-6-yl)-5-[2,5-dimethoxy-3-(2-hydroxyethyl)-1,4-benzoquinon-6-yl]pentane] | 37.6% | 89.4% |  |  |  | 
25 | COC1=CC(=O)C(OC)=C(CCCC2=C(OC)C(=O)C=C(OC)C2=O)C1=O [Test Compound No. 27, 2,2'-Trimethylenebis(3,6-dimethoxy-1,4-benzoquinone)] | 14.9% | 83.3% |  |  |  | 
26 | COCOc1cc(OC)c(OCOC)c(CCCCCc2c(OC)c(OCOC)cc(OC)c2OCOC)c1OC [Test Compound No. 36, 1,5-bis[1,4-Dimethoxy-2,5-bis(methoxymethoxy)-phen-3-yl]pentane] |  |  |  |  | 12.1% | 24.5%
27 | CCCCC1=C(OC)C(=O)C(CCCCCC2=C(OC)C(=O)C=C(OC)C2=O)=C(OC)C1=O [Test Compound No. 38, 3-Butyl-2,5-dimethoxy-6-[5-(2,5-dimethoxy-1,4-benzoquinon-3-yl)pentyl]-1,4-benzoquinone] | 25.1% | 38.2% |  |  |  | 
